Measurements: patent publication US20260206761A1, “HETEROARYL-TRIAZOLE COMPOUNDS AS PESTICIDES” (Bayer Aktiengesellschaft, priority 2019, published 2026)

Assays:
Format in all cases: in vivo
[1] = system: green peach aphid (Myzus persicae); assay: Myzus persicae oral test; details: 120 h, application rate 4 ppm, after 5 days
Procedure, shortened: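 Readout: % mortality at day 5, where 100% = all aphids dead and 0% = none dead. Feeding via parafilm membrane over compound in IPL41 medium (33%+15% sugar); mixed-age population. Stock in acetone (1:100 w/w), water-diluted.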

[2] = system: southern root-knot nematode (Meloidogyne incognita); assay: Meloidogyne incognita test; details: 336 h, application rate 20 ppm, after 14 days, read-out: nematicidal activity (based on gall formation)
Procedure: Meloidoyne incognita—Test
Solvent: 125.0 parts by weight of acetone
To produce a suitable preparation of active compound, 1 part by weight of active compound is mixed with the stated amount of solvent, and the concentrate is diluted with water to the desired concentration.
Vessels are filled with sand, a solution of the active ingredient, a suspension containing eggs and larvae of the southern root-knot nematode (Meloidogyne incognita) and salad seeds. The salad seeds germinate and the seedlings grow. Galls develop in the roots.
After 14 days the nematicidal activity is determined based on the percentage of gall formation. 100% means no galls were found and 0% means the number of galls found on the roots of the treated plants was equal to that in untreated control plants.

[3] = system: adult unfed cat fleas (Ctenocephalides felis); assay: Ctenocephalides felis oral test; details: 48 h, read-out: activity (mortality)
Procedure, shortened: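 About 20 adult unfed fleas fed through parafilm on cattle blood containing compound (DMSO stock diluted in blood), blood held at 37 °C and fleas at room temperature. Mortality (%) scored after 2 days.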

[4] = system: adult engorged female ticks (Rhipicephalus microplus); assay: Rhipicephalus (Boophilus) microplus injection test; details: 168 h, egg deposition after 7 days, read-out: activity (efficacy: infertile eggs); for pest or weed control at 4 pg: application rate 4 pg/animal; for pest or weed control at 0.02 mg: application rate 20 μg/animal
Procedure, shortened: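 Compound in DMSO (10 mg per 0.5 mL, then diluted with DMSO to test concentration); 1 μL injected into the abdomen of each of five engorged females, then held in a climate chamber. Fertile egg deposition checked at 7 days; efficacy 100% = all eggs infertile, 0% = all fertile.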

[5] = system: adult brown dog ticks (Rhipicephalus sanguineus); assay: Rhipicephalus sanguineus in-vitro contact test, adult brown dog ticks; details: after 48 hours, read-out: activity (efficacy: ticks dead or moribund); for pest or weed control at 5 µg/cm2, 500 g/ha: application rate 5 μg/cm^2 (=500 g/ha)
Procedure, shortened: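 Efficacy is % of adult ticks dead or moribund 48 h after confinement at room temperature in tubes wall-coated from acetone (5 μg/cm² at 900 ppm). Scoring by heat challenge at 45-50 °C up to 5 min; immotile or uncoordinated ticks failing to climb count as affected.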

[6] = system: larvae of the banded cucumber beetle (Diabrotica balteata); assay: Diabrotica balteata spray test; details: 168 h, after 7 days, read-out: activity (efficacy: seedlings grown); for pest or weed control at 100 g/ha: application rate 100 g/ha (=32 pg/well)
Procedure, shortened: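 Read-out is % efficacy at day 7, 0% meaning no seedling growth and 100% growth equal to uninfested untreated controls. Test solutions (acetone/DMF concentrate diluted with water carrying 1000 ppm emulsifier) were sprayed onto 1-day-germinated wheat seeds, 5 per well, before infestation with 10-20 larvae.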

[7] = system: Rhipicephalus microplus larvae (strain Parkhurst, resistant against synthetic pyrethroids); assay: Rhipicephalus (Boophilus) microplus in-vitro contact test, larval cattle tick; details: after 48 hours, read-out: activity (efficacy: larvae dead or moribund); for pest or weed control at 100 g/ha: application rate 1 pg/cm^2 (=100 g/ha); for pest or weed control at 500 g/ha: application rate 5 pg/cm^2 (=500 g/ha)
Procedure, shortened: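 Larvae (20-50 per tube) exposed to dry compound film on glass tube walls, 5 μg/cm^2 at 900 ppm, applied from acetone. After 48 h at 27° C./85% RH, tubes tapped and negative geotaxis scored; efficacy as percent dead or moribund larvae.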

[8] = system: fall armyworm larvae (Spodoptera frugiperda); assay: Spodoptera frugiperda spray test; details: 168 h, read-out: activity (mortality)
Procedure, shortened: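 Larvae of fall armyworm placed on dried maize leaf sections previously sprayed with emulsified compound (acetone/DMF solvent, water with 1000 ppm emulsifier). Percent of caterpillars killed recorded on day 7, 0–100% scale.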

[9] = system: green peach aphid (Myzus persicae); assay: Myzus persicae spray test; details: 120 h, application rate 100 g/ha, after 5 days
Procedure, shortened: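 Chinese cabbage leaf disks carrying all instars of M. persicae sprayed with compound in acetone/DMF, diluted in water with 1000 ppm alkylarylpolyglycol ether emulsifier. Percent mortality scored after 5 days (100% = all aphids killed).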

[10] = system: Anopheles funestus strain FUMOZ-R; assay: Anopheles funestus test (ANPHFU surface treatment & contact assay); details: 24 hours after contact, read-out: efficacy (mortality)
Procedure: Anopheles funestus Test (ANPHFU Surface Treatment & Contact Assay)
Solvent: Aceton+2000 ppm rapeseed oil methyl ester (RME)
In order to produce a sufficient, active ingredient containing solution it is necessary to solve the test compound in the solvent-mix (acetone at 2 mg/ml/RME 2000 ppm). This solution is pipetted onto a glazed tile and after evaporation of the acetone, adult mosquitoes of the species Anopheles funestus strain FUMOZ-R (Hunt et al., Med. Vet. Entomol. 2005 September; 19(3): 271-275) are placed onto the dried surface. The exposure time is 30 minutes. Mortality in percent (%) is determined 24 hours after contact of the insects to the treated surface. 100% mortality means that all tested insects are dead, whereas 0% means that no insect died.

[11] = system: Aedes aegypti strain MONHEIM; assay: Aedes aegypti test (AEDSAE surface treatment & contact assay); details: 24 hours after contact, read-out: efficacy (mortality); for mortality at 4 mg/m2: surface concentration 4 mg/m^2, exposure 30 minutes; for mortality at 20 mg/m2: surface concentration 20 mg/m^2, exposure 30 minutes
Procedure, shortened: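 Percent mortality was read 24 h after adult MONHEIM mosquitoes were held for 30 min on a tile treated with compound. Compound applied from acetone solution (2 mg/ml) containing 2000 ppm rapeseed oil methyl ester, after evaporation.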

[12] = system: adult cat fleas (Ctenocephalides felis); assay: Ctenocephalides felis in-vitro contact test, adult cat flea; details: application rate 5 μg/cm^2 (=500 g/ha), after 48 hours, read-out: activity (efficacy: fleas dead or moribund)
Procedure, shortened: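 Efficacy, as % of fleas dead or moribund, was read 48 h after 5-10 adult cat fleas were confined in glass tubes whose walls carried dried compound film (900 ppm, […]). Fleas failing to escape upward from a 45-50° C plate within 5 min counted as dead or moribund.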

[13] = system: larvae of the southern green stink bug (Nezara viridula); assay: Nezara viridula spray test; details: 96 h, after 4 days; for mortality at 100 g/ha: application rate 100 g/ha; for mortality at 500 g/ha: application rate 500 g/ha
Procedure, shortened: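 Larva-infested barley (Hordeum vulgare) plants received a spray of test solution prepared from an acetone/DMF concentrate diluted in emulsifier-containing water (1000 ppm). Percent kill read 4 days later; 0% means no stink bugs dead.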

[14] = system: brown planthopper (Nilaparvata lugens); assay: Nilaparvata lugens spray test; details: 96 h, after 4 days
Procedure: Nilaparvata lugens—Spray Test
Solvent: 78.0 parts by weight of acetone • • 1.5 parts by weight of dimethylformamide
Emulsifier: alkylarylpolyglycol ether
To produce a suitable preparation of active compound, 1 part by weight of active compound is mixed with the stated amount of solvents and is diluted with water, containing an emulsifier concentration of 1000 ppm, to the desired concentration. Further test concentrations are prepared by dilution with emulsifier containing water.
Rice plants (Oryza sativa) are sprayed with a preparation of the active ingredient of the desired concentration and the plants are infested with the brown planthopper (Nilaparvata lugens).
After 4 days mortality in % is determined. 100% means all planthoppers have been killed and 0% means none of the planthoppers have been killed.

| Structure (SMILES) | mortality at 4 ppm [1] [%] | pest or weed control at 20 ppm [2] [%] | mortality at 100 ppm [3] [%] | pest or weed control at 4 pg [4] [%] | pest or weed control at 0.02 mg [4] [%] | pest or weed control at 5 µg/cm2, 500 g/ha [5] [%] | pest or weed control at 100 g/ha [6] [%] | pest or weed control at 100 g/ha [7] [%] | pest or weed control at 500 g/ha [7] [%] | mortality at 100 g/ha [8] [%] | further results |
| --- | --- | --- | --- | --- | --- | --- | --- | --- | --- | --- | --- |
| CC(C)c1nc([C@H](C)NC(=O)c2cc(Cl)cc(S(=O)(=O)C3CC3)c2)n(-c2ccc(C#N)cn2)n1 [I-18] | 100 | 100 | 80 | 100 | 100 | 100 | 100 | 90 | 90 | – | – |
| C[C@H](NC(=O)c1cc(Cl)cc(S(=O)(=O)C2CC2)c1)c1nc(C2CC2)nn1-c1ccc(C#N)cn1 [I-22] | 100 | 100 | 100 | 100 | 100 | 80 | 100 | 100 | 100 | 100 | – |
| CC(NC(=O)c1cc(OC(F)(F)F)cc(C2CC2)c1)c1nc(Br)nn1-c1ccc(C#N)cn1 (stereo not shown) [I-84] | – | 100 | – | – | – | – | 100 | – | – | 100 | – |
| CC(NC(=O)c1cc(OC(F)(F)F)cc(C2CC2)c1)c1nc(I)nn1-c1ccc(C#N)cn1 (stereo not shown) [I-83] | – | 100 | – | – | – | 80 | 100 | 100 | 100 | 100 | – |
| CC(C)c1nc([C@H](C)NC(=O)c2cc(Cl)cc(S(=O)(=O)CC(F)(F)F)c2)n(-c2ccc(C#N)cn2)n1 [I-21, 3-chloro-N-{(1S)-1-[1-(5-cyanopyridin-2-yl)-3-isopropyl-1H-1,2,4-triazol-5-yl]ethyl}-5-[(2,2,2-trifluoroethyl)sulfonyl]benzamide] | – | 90 | – | 100 | 100 | – | – | – | – | – | mortality at 100 g/ha [9]: 90% |
| C[C@H](NC(=O)c1cc(C2CC2)cc(S(=O)(=O)C2CC2)c1)c1nc(C2CC2)nn1-c1ccc(C#N)cn1 [I-56] | – | 100 | – | – | – | – | – | 100 | 100 | 100 | – |
| C[C@H](NC(=O)c1cc(C#N)cc(S(C)(=O)=O)c1)c1ncnn1-c1ncccn1 [II-28] | 100 | – | – | 100 | 100 | 100 | – | – | – | – | mortality at 4 mg/m2 ([10]; surface concentration 4 mg/m^2, exposure 30 minutes): 80 to 100%; mortality at 20 mg/m2 ([10]; surface concentration 20 mg/m^2, exposure 30 minutes): 80 to 100%; mortality at 4 mg/m2 [11]: 80 to 100%; mortality at 20 mg/m2 [11]: 80 to 100%; pest or weed control at 100 g/ha ([5]; application rate 1 pg/cm^2 (=100 g/ha)): 100%; pest or weed control at 500 g/ha ([6]; application rate 500 g/ha (=160 pg/well)): 100%; pest or weed control at 5 µg/cm2 [12]: 100%; mortality at 100 g/ha [13]: 100%; mortality at 500 g/ha [13]: 100%; mortality at 100 g/ha ([14]; application rate 100 g/ha): 100%; mortality at 500 g/ha ([14]; application rate 500 g/ha): 100% |
| CCS(=O)(=O)c1cc(Cl)cc(C(=O)N[C@@H](C)c2nc(C(C)C)nn2-c2ccc(C#N)cn2)c1 [I-17] | – | 90 | 90 | 100 | 100 | – | – | 80 | 80 | – | – |
| C[C@H](NC(=O)c1cc(Cl)cc(S(=O)(=O)C2CC2)c1)c1ncnn1-c1ccc(C#N)cn1 [II-21] | 100 | 90 | – | 100 | 100 | – | – | 100 | 100 | 100 | mortality at 4 mg/m2 [11]: 80 to 100%; mortality at 20 mg/m2 [11]: 80 to 100%; mortality at 500 g/ha [8]: 100%; pest or weed control at 5 µg/cm2 [12]: 100%; mortality at 100 g/ha [13]: 90%; mortality at 500 g/ha [13]: 100% |
